Measured values as given in ChEMBL document CHEMBL3832881, “CO-ADD antimicrobial screening data of OSM samples” (2017).
Values after ≈ are worked out from the molar mass of the structure shown.

Experiments:
Candida albicans [1] = assay: Antifungal activity against Candida albicans ATCC 90028; Growth inhibition at 32 ug/mL in YNB media using NBS plates.; type: functional, ATCC 90028; CLSI reference; details: CLSI reference, ASSAY_TEST Inhibition of Fungal Growth, CONC 32 ug.mL-1, detection method Absorption (OD600), plate type NBS, 384well, time 18 hr
Pseudomonas aeruginosa [2] = assay: Antibacterial activity against Pseudomonas aeruginosa ATCC 27853; Growth inhibition at 32 ug/mL in CAMBH media using NBS plates.; type: functional, ATCC 27853; Type strain; details: Type strain, ASSAY_TEST Inhibition of Bacterial Growth, CONC 32 ug.mL-1, detection method Absorption (OD600), MEDIA CAMHB, plate type NBS, 384well, time 18 hr
Cryptococcus neoformans [3] = assay: Antifungal activity against Cryptococcus neoformans H99 ATCC 208821; Growth inhibition at 32 ug/mL in YNB media using NBS plates.; type: functional, ATCC 208821; H99 Type strain; details: H99 Type strain, ASSAY_TEST Inhibition of Fungal Growth, CONC 32 ug.mL-1, detection method Resazurin, Absorption (OD600-OD570), plate type NBS, 384well, time 18 hr
Klebsiella pneumoniae [4] = assay: Antibacterial activity against Klebsiella pneumoniae MDR ATCC 70063; Growth inhibition at 32 ug/mL in CAMBH media using NBS plates.; type: functional, ATCC 700603; MDR; details: ATCC 700603, ASSAY_TEST Inhibition of Bacterial Growth, CONC 32 ug.mL-1, detection method Absorption (OD600), MEDIA CAMHB, plate type NBS, 384well, time 18 hr
Staphylococcus aureus [5] = assay: Antibacterial activity against Staphylococcus aureus MRSA ATCC 43300; Growth inhibition at 32 ug/mL in CAMBH media using NBS plates.; type: functional, ATCC 43300; MRSA; details: ASSAY_TEST Inhibition of Bacterial Growth, CONC 32 ug.mL-1, detection method Absorption (OD600), MEDIA CAMHB, plate type NBS, 384well, time 18 hr
Acinetobacter baumannii [6] = assay: Antibacterial activity against Acinetobacter baumannii ATCC 19606; Growth inhibition at 32 ug/mL in CAMBH media using NBS plates.; type: functional, ATCC 19606; Type strain; details: Type strain, ASSAY_TEST Inhibition of Bacterial Growth, CONC 32 ug.mL-1, detection method Absorption (OD600), MEDIA CAMHB, plate type NBS, 384well, time 18 hr
Escherichia coli [7] = assay: Antibacterial activity against Escherichia coli ATCC 25922; Growth inhibition at 32 ug/mL in CAMBH media using NBS plates.; type: functional, ATCC 25922; Type strain; details: Type strain, ASSAY_TEST Inhibition of Bacterial Growth, CONC 32 ug.mL-1, detection method Absorption (OD600), MEDIA CAMHB, plate type NBS, 384well, time 18 hr
Escherichia coli [8] = assay: Antibacterial activity against Escherichia coli ATCC 25922; MIC in CAMBH media using NBS plates.; type: functional, ATCC 25922; Type strain; details: Type strain, ASSAY_TEST Inhibition of Bacterial Growth, detection method Absorption (OD600), MEDIA CAMHB, plate type NBS, 384well, time 18 hr
[9] = Cytotoxicity against HEK293 cells; CC50 by Resazurin assay in DMEM (10% FBS) media using TC plates; type: toxicity, cell-based, ATCC CRL1573; parameters: time 18 hr; details: human
Cryptococcus neoformans [10] = assay: Antifungal activity against Cryptococcus neoformans H99 ATCC 208821; MIC in YNB media using NBS plates.; type: functional, ATCC 208821; H99 Type strain; details: H99 Type strain, ASSAY_TEST Inhibition of Fungal Growth, detection method Resazurin, Absorption (OD600-OD570), plate type NBS, 384well, time 18 hr
Pseudomonas aeruginosa [11] = assay: Antibacterial activity against Pseudomonas aeruginosa ATCC 27853; MIC in CAMBH media using NBS plates.; type: functional, ATCC 27853; Type strain; details: Type strain, ASSAY_TEST Inhibition of Bacterial Growth, detection method Absorption (OD600), MEDIA CAMHB, plate type NBS, 384well, time 18 hr
Candida albicans [12] = assay: Antifungal activity against Candida albicans ATCC 90028; MIC in YNB media using NBS plates.; type: functional, ATCC 90028; CLSI reference; details: CLSI reference, ASSAY_TEST Inhibition of Fungal Growth, detection method Absorption (OD630), plate type NBS, 384well, time 18 hr
Acinetobacter baumannii [13] = assay: Antibacterial activity against Acinetobacter baumannii ATCC 19606; MIC in CAMBH media using NBS plates.; type: functional, ATCC 19606; Type strain; details: Type strain, ASSAY_TEST Inhibition of Bacterial Growth, detection method Absorption (OD600), MEDIA CAMHB, plate type NBS, 384well, time 18 hr
Staphylococcus aureus [14] = assay: Antibacterial activity against Staphylococcus aureus MRSA ATCC 43300; MIC in CAMBH media using NBS plates.; type: functional, ATCC 43300; MRSA; details: ASSAY_TEST Inhibition of Bacterial Growth, detection method Absorption (OD600), MEDIA CAMHB, plate type NBS, 384well, time 18 hr
Klebsiella pneumoniae [15] = assay: Antibacterial activity against Klebsiella pneumoniae MDR ATCC 70063; MIC in CAMBH media using NBS plates.; type: functional, ATCC 700603; MDR; details: ATCC 700603, ASSAY_TEST Inhibition of Bacterial Growth, detection method Absorption (OD600), MEDIA CAMHB, plate type NBS, 384well, time 18 hr

Row | MIC (Escherichia coli [8]) [mg/L] | MIC (Cryptococcus neoformans [10]) [mg/L] | MIC (Pseudomonas aeruginosa [11]) [mg/L] | MIC (Candida albicans [12]) [mg/L] | MIC (Acinetobacter baumannii [13]) [mg/L] | MIC (Staphylococcus aureus [14]) [mg/L] | MIC (Klebsiella pneumoniae [15]) [mg/L] | SMILES | inhibition at 32 µg/mL (Candida albicans [1]) [%] | inhibition at 32 µg/mL (Pseudomonas aeruginosa [2]) [%] | inhibition at 32 µg/mL (Cryptococcus neoformans [3]) [%] | inhibition at 32 µg/mL (Klebsiella pneumoniae [4]) [%] | inhibition at 32 µg/mL (Staphylococcus aureus [5]) [%] | inhibition at 32 µg/mL (Acinetobacter baumannii [6]) [%] | inhibition at 32 µg/mL (Escherichia coli [7]) [%] | CC50 at 18 h [9] [mg/L]
1 | – | – | – | – | – | – | – | c1cc2c(s1)CCOC21CCN(Cc2ccc3c(c2)OCCO3)CC1 | 1 | 8.6 | -5.8 | 19.3 | 17.4 | 10.2 | 16.1 | –
2 | – | – | – | – | – | – | – | Cc1cc(/C=C2\S/C(=N\c3ccccc3)NC2=O)c(C)n1-c1ccc(C(F)(F)F)cc1 | 9.8 | 7.3 | -1.7 | 6.7 | 17.9 | 9.1 | 6.8 | –
3 | – | – | – | – | – | – | – | c1ccc(CN2CCC3(CC2)OCCc2ccsc23)cc1 | 3.6 | 11.9 | -4 | 8.6 | 17.1 | 9.8 | 17.1 | –
4 | – | – | – | – | – | – | – | c1ccc(CN2CCC3(CC2)OCCc2cc(-c4ccccc4)sc23)cc1 | 9.1 | -1.5 | -0.6 | 12.4 | 18.9 | 6.6 | 14.3 | –
5 | > 32 | > 32 | > 32 | > 32 | > 32 | > 32 | > 32 | CCN1C(=O)c2cccc3c(-n4cc(CN5CCCNCCN(Cc6cn(-c7ccc8c9c(cccc79)C(=O)N(CC)C8=O)nn6)CCCNCC5)nn4)ccc(c23)C1=O.O=C(O)C(F)(F)F.O=C(O)C(F)(F)F | 5.2 | 15.2 | 1.4 | 17.2 | 54 | 31.4 | 20.4 | > 32
6 | > 32 | > 32 | > 32 | 16 (≈ 45.6 µM) | > 32 | > 32 | > 32 | Clc1ccc(-c2nnc3cncc(OCCc4ccccc4)n23)cc1 | 88.8 | 8.6 | -0.5 | 7.5 | 14.5 | 5.7 | 5.2 | > 32
7 | – | – | – | – | – | – | – | CC(C)C[C@H](NC(=O)[C@H](CCCCN)NC(=O)Cn1cc(CN2CCCNCCNCCCNCC2)nn1)C(=O)N[C@H](C(=O)N[C@@H](Cc1ccccc1)C(=O)N[C@@H](Cc1ccccc1)C(=O)O)C(C)C | 1.3 | 5 | -3.4 | 6 | 16.9 | 13.1 | 21.4 | –
8 | – | – | – | – | – | – | – | COc1ccc(-n2c(C)cc(/C=C3\S/C(=N\c4ccccc4)NC3=O)c2C)cc1 | 7.8 | -4.2 | -4.3 | -1.1 | 10.6 | -2.8 | 2.8 | –
9 | – | – | – | – | – | – | – | Clc1ccccc1-c1nnc2cncc(OCCc3ccccc3)n12 | 1.8 | 14.7 | -5.6 | 6.2 | 15.3 | 5.2 | 17.8 | –
